Data from patent publication US20080171706A1, “Anti-Adhesive Compounds to Prevent and Treat Bacterial Infections” (priority 2004, published 2008).
Where two headings read alike, the source gives them in different places.

Tests used:
Assay in all cases: biochemical
FimHtrJ96 = biological target: T1, FimHtrJ96 (Escherichia coli, UniProt P08191); format: binding, uropathogenic E. coli strain J96; conditions: for ΔG° J96: Table 3, calculated from KD
T1 construct: coding for the lectin domain of FimH (residues 1-158) with a C-terminal 6-histidine tag; made in house; host or cells: E. coli HB101 (lacking the fim operon), periplasmic extract, plasmid pPKL241
Protocol: To measure the dissociation constant for FimH:alkyl or aryl-mannoside binding, two different binding assays were developed. The first binding assay uses [^3H]-mannose. The amount of radioactively labeled mannose bound to FimHtrJ96 was measured at six different concentrations of [^3H]-mannose, and a hyperbolic curve fitted to the resulting data (FIG. 1A). FimHtrJ96 corresponds to the carbohydrate (mannose) binding domain of FimH from the uropathogenic E. coli strain J96. The dissociation equilibrium constant was determined from this graph at the concentration of mannose […], which corresponds to occupation of half of the binding sites.
Surface Plasmon Resonance measurements were performed on a Biacore3000™. In a first experiment, the kinetic constants and maximal binding were determined for the FimH-antibody interaction. Next, a fixed concentration of FimH (close to the KD of the FimH-antibody interaction) in combination with varying concentrations of carbohydrate, were used to determine the dissociation equilibrium constant of the FimH-saccharide interaction in a competition experiment. Every measurement was repeated at least twice, including testing the variation between different protein and saccharide batches.
To eliminate the possibility of different binding strength for full length FimH and FimHtrJ96, the binding of alpha-D-mannose to FimC:FimH complex was also measured. […] The inhibition of [^3H]-mannose binding was used in a displacement assay to determine the dissociation constant for a synthetic butyl mannoside by measuring the amount of [^3H]-mannose bound to the protein in the presence of increasing amounts of the inhibitor (FIG. 1B). […] To investigate the effect of sequential addition of methyl groups to the O1 oxygen of D-mannose, a series of alkyl mannosides were synthesized and the dissociation constants determined using the [^3H]-mannose displacement assay and by surface plasmon resonance (Table 1).
Surface Plasmon Resonance measurements were performed on a Biacore3000™. The Fab fragments of a monoclonal antibody against FimH were covalently immobilised via lysines at 1000 Resonance Units (1000 pg ligand/mm^2) in flowcell Fc2 on a CM5 biasensor chip (BIAapplications Handbook, Biacore AB, Uppsala, Sweden). Immobilisation buffer was 100 mM NaAc pH 5.0 with 100 mM NaCl. The reference flowcell Fc1 was left blank.
Binding of FimH to the immobilized antibody was measured with a Biacore 3000 instrument in running buffer (phosphate buffered saline with 0.005% surfactant P20 and 3 mM EDTA), on both flowcells Fc1 and Fc2 simultaneously, at a flow rate of 30 μl/min and at 25° C. Complete dissociation of FimH was done with running buffer before starting a new binding cycle. For all measurements, the association time was 3 minutes, the dissociation time was 30 min. All binding cycles were performed in duplicate, including a zero concentration cycle of FimH (injection of running buffer).
In a first experiment, the kinetic constants, ka and kd, and the maximal binding Rmax, were determined for the FimH-antibody interaction (FimH concentrations (nM): 2000, 1000, 500, 250, 125, 62.5, 31.25, 15.625, 7.818, 3.911, 1.957, 0). All analyses were performed with the BIAeval software. A Langmuir binding isotherm with a 1:1 stoichiometry was fitted to the data, from which the kinetic constants and maximal binding were obtained.
In the next experiment, samples containing a fixed concentration of FimH (close to the KD of the FimH-antibody interaction) in combination with varying concentrations of saccharide, were used to determine the dissociation constant of the FimH-saccharide interaction in a competition experiment. First, ten-fold dilutions of the saccharide solution were used to determine the concentration range for binding of the saccharide to FimH.

FimHtrCl#4 = biological target: T2, FimHtrCl#4 (Escherichia coli, UniProt P08191, G94E/N91S/S99N/V48A); format: binding, E. coli UPEC (Cl#4) strain; conditions: for Kd: Table 3, [3H]-mannose displacement assay (mannose measured directly), read-out: KD CI#4; for ΔG° CI#4: Table 3, calculated from KD
T2 construct: coding for the lectin domain of FimH (residues 1-158) with a C-terminal 6-histidine tag; made in house; host or cells: E. coli HB101 (lacking the fim operon), periplasmic extract, plasmid pMAS146
Protocol: (§1) To investigate if these variations reflect differences in sugar binding at the molecular level, the dissociation constants of a series of mannosides for the FimH lectin domain from a fecal (F18) and from a UPEC (Cl#4) strain were determined. […] For comparison, binding to FimHtrJ96 was also investigated. Both F18 and Cl#4 FimH lectin domains were cloned, expressed, and purified in the same way as FimHtrJ96 (Schembri et al., 2000). These two lectin domains differ from the lectin domain of FimHJ96 by substitutions Val27Ala, Asn70Ser and Ser78Asn. In addition, FimHCl#4 differs from the other two variants by a Gly73Glu substitution. […] Five different tri-mannosides corresponding to high-mannose substructures were synthesized, and their binding to FimHtrJ96, FimHtrF18 and FimHtrCl#4 measured using our [^3H]-mannose displacement assay (Table 3). Alpha-D-mannose binding was first directly measured for each of the FimH variants.
(§2) [^3H]alpha-D-mannose was obtained from Amersham. […] Syntheses of tri-mannosides was as reported earlier by Oscarson and co-workers (1993). Weighed amounts of tri-mannosides were dissolved in double distilled water to give stock solutions of 0.87 M man-(1,2)-man-(1,2)-man, 0.25 M man-(1,2)-man-(1,3)-man, 0.27 M man-(1,2)-man-(1,6)-man, 0.30 M man-(1,3)-man-(1,6)-man, 0.13 M man-(1,6)-man-(1,6)-man. Similarly, alkyl mannosides were dissolved in double distilled water to give stock solutions of 100 mM methyl mannoside, 59.8 mM ethyl mannoside, 45.9 mM propyl mannoside, 51.9 mM butyl mannoside, 17.3 mM pentyl mannoside, 20.8 mM hexyl mannoside, 15.3 mM heptyl mannoside, 15.2 mM octyl mannoside. pNPalphaMan and MeUmbalphaMan (6 mg each) were dissolved in 20 μl DMSO and diluted to 20 mM using double distilled water. Binding experiments were performed using six different concentrations of [^3H]-alpha-D-mannose (final concentrations 43.5 μM, 29.0 μM, 19.3 μM, 12.9 μM, 8.6 μM, 5.7 μM). FimHtrJ96 obtained by growing bacteria in minimal medium was used in all binding experiments. 180 μl protein at a concentration of about 500 nM was mixed with 20 μl of the radioactive ligand, and incubated at 37° C. for 20 min. To separate free ligand from bound, the mixture was rapidly filtrated through a Protran BA 85 Cellulose-nitrate filter (Schleicher & Schuell, Dassel, Germany), and washed once with 1 ml of ice-cold 1× PBS (phosphate buffered saline). Filter-bound radioactivity was measured by scintillation spectrometry within 24 hours. The displacement experiments were performed using six different concentrations (final concentrations in the range 0.0˜43.5 μM) of the inhibitor, in the presence of 43.5 μM [^3H]-alpha-D-mannose. 20 μl radioactive ligand, 20 μl inhibitor at decreasing concentrations, and 160 μl protein (500 nM) were mixed, and the experiments performed as above. All experiments were performed in duplicates. For determination of KD for α-D-mannose, a hyperbolic curve (y=P1x/(P2+x), where P2=KD) was fitted to the data. For the displacement experiments, the curve y=P1/(P2+x), where P2 is the concentration of the inhibitor displacing 50% of the labelled ligand, [I]0.5 was used instead. To calculate the inhibitor dissociation constant (KI) the Cheng & Prusoff equation (KI=[I]0.5/([L]/KL+1); KL is the constant of dissociation for the ligand) (Cheng and Prusoff, 1973), was used when both the concentration of the radioactive ligand (L) and the displacing agent (I) are in excess over the protein (LT>>PT;IT>>PT, T indicates total concentration). […] A plot of IT/((1−Y)*(LT/KL)−Y) against 1/Y gives a straight line with a slope of KI.

FimHtrF18 = biological target: T3, FimHtrF18 (Escherichia coli, UniProt P08191, N91S/S99N/V48A); format: binding, E. coli fecal (F18) strain; conditions: for Kd: Table 3, [3H]-mannose displacement assay (mannose measured directly), read-out: KD F18; for ΔG° F18: Table 3, calculated from KD
T3 construct: coding for the lectin domain of FimH (residues 1-158) with a C-terminal 6-histidine tag; made in house; host or cells: E. coli HB101 (lacking the fim operon), periplasmic extract, plasmid pPKL316
Protocol: as §1, §2

[1] = displacement assay, FimHtrJ96, read-out: KD
[2] = quoted in b67 for comparison with docking, method not given, read-out: experimentally determined dissociation constant Kd
[3] = Table 3, [3H]-mannose displacement assay (mannose measured directly), read-out: KD J96

T1 sequence (P08191 22-179): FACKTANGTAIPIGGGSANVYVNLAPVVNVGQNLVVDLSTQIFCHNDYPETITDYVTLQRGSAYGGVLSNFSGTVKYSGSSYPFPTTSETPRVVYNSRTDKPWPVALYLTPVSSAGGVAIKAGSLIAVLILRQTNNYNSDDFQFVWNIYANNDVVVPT
T3 sequence (P08191 22-179 V48A/N91S/S99N): as the sequence (P08191 22-179) above, with V27A, N70S, S78N counted along it
T2 sequence (P08191 22-179 V48A/N91S/G94E/S99N): as the sequence (P08191 22-179) above, with V27A, N70S, G73E, S78N counted along it

## OC[C@H]1O[C@H](O)C[C@@H](O)[C@@H]1O [2-deoxy α-D-mannose]
FimHtrJ96
  Kd: 300 µM
FimHtrJ96; Table 2, calculated from KD
  ΔG°: -4.8 kcal/mol

## CCCCO[C@H]1O[C@H](CO)[C@@H](O)[C@H](O)[C@@H]1O [Butyl man, butyl mannoside]
FimHtrJ96; Table 1, O1 alkyl and aryl mannosides, SPR and displacement binding experiments, read-out: KD
  Kd: 0.151 µM
FimHtrJ96; Table 1, calculated from KD
  ΔG°: -9.3 kcal/mol
FimHtrJ96; [3H]-mannose binding or displacement assay, FimHtrJ96, read-out: KD
  Kd: 0.15 µM
FimHtrJ96; butyl mannoside vs D-mannose, displacement assay
  binding strength relative to D-mannose (times stronger): around 15 times

## CCO[C@H]1O[C@H](CO)[C@@H](O)[C@H](O)[C@@H]1O [Ethyl man, ethyl mannoside]
FimHtrJ96
  Kd: 1.2 µM
FimHtrJ96; Table 1, calculated from KD
  ΔG°: -8.1 kcal/mol

## CCCCCCCO[C@H]1O[C@H](CO)[C@@H](O)[C@H](O)[C@@H]1O [Heptyl man, heptyl α-D-mannopyranoside]
FimHtrJ96
  Kd: 0.005 µM
FimHtrJ96; SPR and displacement binding experiments, Table 1 series
  ranking of binders: best binder
FimHtrJ96; Table 1, calculated from KD
  ΔG°: -11.3 kcal/mol

## CCCCCCO[C@H]1O[C@H](CO)[C@@H](O)[C@H](O)[C@@H]1O [Hexyl man, hexyl mannoside]
FimHtrJ96
  Kd: 0.01 µM
FimHtrJ96; Table 1, calculated from KD
  ΔG°: -10.9 kcal/mol

## CO[C@H]1O[C@H](CO)[C@@H](O)[C@H](O)[C@@H]1O [Methyl man, Methyl mannoside]
FimHtrJ96
  Kd: 2.2 µM
FimHtrJ96; Table 1, calculated from KD
  ΔG°: -7.7 kcal/mol

## CCCCCCCCO[C@H]1O[C@H](CO)[C@@H](O)[C@H](O)[C@@H]1O [Octyl man, octyl mannoside]
FimHtrJ96
  Kd: 0.022 µM
FimHtrJ96; Table 1, calculated from KD
  ΔG°: -10.4 kcal/mol

## CCCCCO[C@H]1O[C@H](CO)[C@@H](O)[C@H](O)[C@@H]1O [Pentyl man, pentyl mannoside]
FimHtrJ96
  Kd: 0.025 µM
FimHtrJ96; Table 1, calculated from KD
  ΔG°: -10.4 kcal/mol

## CCCO[C@H]1O[C@H](CO)[C@@H](O)[C@H](O)[C@@H]1O [Propyl man, propyl mannoside]
FimHtrJ96
  Kd: 0.3 µM
FimHtrJ96; Table 1, calculated from KD
  ΔG°: -8.9 kcal/mol

## Cc1cc(=O)oc2cc(O[C@H]3O[C@H](CO)[C@@H](O)[C@H](O)[C@@H]3O)ccc12 [Umbelliferyl man, 4-Methylumbelliferyl α-mannoside]
FimHtrJ96; Table 1, calculated from KD
  ΔG°: -10.8 kcal/mol
FimHtrJ96; [1]
  Kd: 0.012 µM
FimHtrJ96; [2]
  Kd: 0.02 µM

## O=C(CO)[C@@H](O)[C@H](O)[C@H](O)CO [fructose]
FimHtrJ96
  Kd: 31 µM
FimHtrJ96; Table 2, calculated from KD
  ΔG°: -6.1 kcal/mol
FimHtrJ96; fructose vs mannose, FimH
  affinity relative to mannose (times lower): 15 times

## O=C[C@H](O)[C@@H](O)[C@@H](O)[C@H](O)CO [galactose]
FimHtrJ96
  Kd: 100000 µM
FimHtrJ96; Table 2, calculated from KD
  ΔG°: -1.4 kcal/mol

## OC[C@H]1O[C@H](O[C@@H]2[C@@H](O[C@@H]3C(O)O[C@H](CO)[C@@H](O)[C@@H]3O)O[C@H](CO)[C@@H](O)[C@@H]2O)[C@@H](O)[C@@H](O)[C@@H]1O (stereo partly shown) [man-(1,2)-man-(1,2)-man]
FimHtrCl#4
  Kd: 3.95 µM
  ΔG° CI#4: -7.7 kcal/mol
FimHtrF18
  Kd: 3.25 µM
  ΔG° F18: -7.8 kcal/mol
FimHtrJ96; [3]
  Kd: 1.6 µM
FimHtrJ96
  ΔG° J96: -8.2 kcal/mol

## OC[C@H]1O[C@H](O[C@@H]2[C@@H](O[C@H]3[C@H](O)[C@@H](CO)OC(O)[C@H]3O)O[C@H](CO)[C@@H](O)[C@@H]2O)[C@@H](O)[C@@H](O)[C@@H]1O (stereo partly shown) [man-(1,2)-man-(1,3)-man]
FimHtrCl#4
  Kd: 3.65 µM
  ΔG° CI#4: -7.7 kcal/mol
FimHtrF18
  Kd: 3.05 µM
  ΔG° F18: -7.8 kcal/mol
FimHtrJ96; [3]
  Kd: 1.8 µM
FimHtrJ96
  ΔG° J96: -8.1 kcal/mol

## OC[C@H]1O[C@H](O[C@@H]2[C@@H](OC[C@H]3OC(O)[C@@H](O)[C@@H](O)[C@@H]3O)O[C@H](CO)[C@@H](O)[C@@H]2O)[C@@H](O)[C@@H](O)[C@@H]1O (stereo partly shown) [man-(1,2)-man-(1,6)-man]
FimHtrCl#4
  Kd: 2.2 µM
  ΔG° CI#4: -8.0 kcal/mol
FimHtrF18
  Kd: 1.8 µM
  ΔG° F18: -8.1 kcal/mol
FimHtrJ96; [3]
  Kd: 0.83 µM
FimHtrJ96
  ΔG° J96: -8.6 kcal/mol

## O=[N+]([O-])c1ccc(OC2O[C@H](CO)[C@@H](O)[C@H](O)[C@@H]2O)cc1 (stereo partly drawn) [p-Nitrophenyl man, p-Nitrophenyl α-mannoside]
FimHtrJ96; Table 1, calculated from KD
  ΔG°: -10.3 kcal/mol
FimHtrJ96; [1]
  Kd: 0.026 µM
FimHtrJ96; [2]
  Kd: 0.044 µM

## OC[C@H]1O[C@@](CO)(O[C@H]2O[C@H](CO)[C@@H](O)[C@H](O)[C@H]2O)[C@@H](O)[C@@H]1O [sucrose]
FimHtrJ96
  Kd: 12800 µM
FimHtrJ96; Table 2, calculated from KD
  ΔG°: -2.6 kcal/mol
